What was measured:
[1] = test system: THP-1; test: Cytotoxicity against Homo sapiens (human) THP1 cells up to 0.1 mM after 24 hr by MTS assay; assay type: cell-based; conditions: thp-1, 24 h
[2] = test system: HepG2; test: Cytotoxicity against Homo sapiens (human) HepG2 cells up to 0.1 mM after 24 hr by MTS assay; assay type: cell-based; conditions: hepg2, 24 h

COc1cc(CC2(C(C)C)C(=N)NC(=S)NC2=O)cc(OC)c1OC (stereo unspecified)
Activity [1]: Non-toxic | Activity [2]: Non-toxic

COc1cc(CC2C(=N)NC(=S)NC2=O)cc(OC)c1OC (stereo unspecified)
Activity [1]: Non-toxic | Activity [2]: Non-toxic

C=CCC1(Cc2cc(OC)c(OC)c(OC)c2)C(=N)NC(=S)NC1=O (stereo unspecified)
Activity [1]: Non-toxic | Activity [2]: Non-toxic

CCCC1(Cc2cc(OC)c(OC)c(OC)c2)C(=N)NC(=S)NC1=O (stereo unspecified)
Activity [1]: Non-toxic | Activity [2]: Non-toxic

CCC1(Cc2cc(OC)c(OC)c(OC)c2)C(=N)NC(=S)NC1=O (stereo unspecified)
Activity [1]: Non-toxic | Activity [2]: Non-toxic

COc1cc(CC2(C)C(=N)NC(=S)NC2=O)cc(OC)c1OC (stereo unspecified)
Activity [1]: Non-toxic | Activity [2]: Non-toxic

COc1cc(CC2(Cc3cc(OC)c(OC)c(OC)c3)C(=N)NC(=S)NC2=O)cc(OC)c1OC
Activity [1]: Non-toxic | Activity [2]: Non-toxic

CCCCC1(Cc2cc(OC)c(OC)c(OC)c2)C(=N)NC(=S)NC1=O (stereo unspecified)
Activity [1]: Non-toxic | Activity [2]: Non-toxic
